From patent publication EP1941863A2, “External preparation composition” (Lion Corporation, priority 2002, dated 2004)
Values after ≈ are worked out from the molar mass of the structure shown.

How the values were obtained:
[1] = test system: guinea pig skin; assay: continuous irritative test of guinea pig skin (Draize method); format: in vivo, guinea pig (Hartley series); set-up: key: sum of erythema (0-4) + edema (0-4) scores; max 8
Experimental: Each left and right two spots (4 spots/head) of applying parts having a frame of 2 cm x 2 cm were provided on the back of a shaved guinea pig (Hartley series, 7 weeks of age, female, N = 10), and each 50 µL of an ethanol/propylene glycol (7 : 3) solution containing 0.5 % of the respective acyl glucosamine derivatives shown in the following Table 1 was applied once a day on the respective frames.
A skin irritative score after application for 3 days straight was evaluated according to the following evaluation criteria (Draize method). The above irritative score was shown by the total points (full marks: 8 points) of erythema and edema.
• Erythema: • Evaluation point • 0: no erythema • 1: very weak erythema • 2: clear erythema • 3: middle to strong erythema • 4: very strong erythema to crust
• Evaluation point • 0: no edema • 1: very slight edema formation • 2: slight edema formation • 3: middle edema formation • 4: strong edema formation

[2] = solubility in the ethanol/propylene glycol (7 : 3) solvent (Japanese Pharmacopoeia criteria); format: physicochemical; settings: organic solvent or mixture, 20°C, within 30 minutes, amount of solvent for 1 g or 1 ml of solute
[3] = test system: skin roughness in the inside of a forearm formed with 10 % SDS solution; assay: skin roughness-improving test (SDS-induced roughness, stratum corneum conductance); format: in vivo, human being; settings: hydrophilic ointment with 0.05 %, twice a day, 3 days later; conductance relative to ointment with no tested substance = 100
Experimental: The skin roughness-improving degree observed 3 days later after application was evaluated using a change in a stratum corneum water content as an index. The stratum corneum water content is measured in terms of a conductance (µS). […] Skin roughness-improving rate (%) = [(conductance observed when applying the ointment blended with the tested substance)/(conductance observed when applying the ointment blended with no tested substance)] × 100 [formula]

[4] = test system: pigmentation on the backs of color guinea pigs irradiated with UV rays; assay: whitening evaluation on UV-induced pigmentation; format: in vivo; settings: 30 µL of 0.05 % in ethanol/propylene glycol (7 : 3), once a day, five times a week, 4 weeks; visual change in pigmentation
Description: Back body hair of color guinea pigs were shaved by means of a hair clipper and a shaver, and they were irradiated with UV rays once a day, 4 times a week and 8 times in total, whereby 4 parts of pigmentation having an area of about 2.25 cm^2 were formed on the backs of the respective guinea pigs.

[5] = test system: wrinkles of the back skin of hairless mice irradiated with UVB; assay: wrinkle-improving test in UVB-irradiated hairless mice; format: in vivo, hairless mice (hos: HR-1); settings: 100 µL of 0.05 % in ethanol/propylene glycol (7 : 3), once a day, five times a week, 8 weeks, after 10 weeks UVB 50 mJ/cm^2; visual score relative to control group
Experimental: Evaluation point 1: all fine striations along the spine are not observed; a few shallow and coarse wrinkles run perpendicularly to the head-to-tail direction; and the striations appear or disappear with the motion of the mouse. […] The respective bodies were evaluated by an evaluation point of a 0.5 unit to calculate an average point for the respective groups, and the wrinkle-improving rate was calculated for the respective groups according to the following equation (II). Wrinkle-improving rate (%) = [(average value of the control group-average value of a glucosamine derivative-applied group)/(average value of the control group)] × 100 [formula]

[6] = test system: texture of the back skin of hairless mice irradiated with UVB; assay: coarse texture-improving test in UVB-irradiated hairless mice (skin replica); format: in vivo, hairless mice (hos: HR-1); settings: 100 µL of 0.05 % in ethanol/propylene glycol (7 : 3), five times a week, 4 weeks, after 6 weeks UVB 40 mJ/cm^2; texture intersection points relative to start of test; control 24
Description: The enlarged photographs of the respective replicas were taken through a macro lens (magnification: four times), and the photographs were used to evaluate "coarsening of the texture". The coarseness of the texture was defined by a "number of texture intersection point", wherein a point in which three or more sulci cutis are joined is counted as one intersection point, and the number of the texture intersection points present in a square of 1 cm x 1 cm was counted on the replica photograph. An average point for the respective groups was calculated, and the texture-improving rate was calculated according to the following equation (III). Table 4. Texture-improving rate (%) = [(number of texture intersection point after irradiating with UV or after application)/(number of texture intersection point at the time of starting the test)] × 100 [formula]

[7] = test system: acnes of acne patients; assay: acne-improvement evaluation with an essence for acne; format: in vivo; settings: essence with 0.05 %, a month later; for Evaluation ×: number of subjects rated × : worsened; for Evaluation Δ: number of subjects rated Δ : no change; for Evaluation ⊚: number of subjects rated ⊚ : notably improved, several times a day; for Evaluation ○: number of subjects rated ○ : improved; for Acne treating effect: subjects rated ○ or ⊚
Experimental: Prepared was an essence for acne shown in the following composition example in which 0.05 % of various acyl glucosamine derivatives shown in the following Table 6 was blended. An essence which was not blended with an acyl glucosamine derivative was prepared as a control.

[8] = Table 2, by stereoisomer ratio, 0.5 % in ethanol/propylene glycol (7 : 3) once a day, 3 days straight, full marks 8
[9] = Table 1, 50 µL of 0.5 % in ethanol/propylene glycol (7 : 3) once a day, after 3 days straight, total points of erythema and edema, full marks 8, N = 10

Row | Compound | Draize score [1, 8] | solubility at 0.5 h [2] [µg/mL] | Draize score [1, 9] | Skin roughness-improving rate [3] [%] | Whitening-improving effect [4] | Wrinkle-improving rate [5] [%] | Texture-improving rate [6] [%] | Evaluation × [7] | Evaluation Δ [7] | Evaluation ⊚ [7] | Evaluation ○ [7] | Acne treating effect [7] [percentage] | Draize score ([1]; guinea pig, in vivo)
1 | 1,3,4,6-tetra-O-acetyl-N-retinoyl-D-glucosamine | 0.0 | – | – | – | – | – | – | – | – | – | – | – | –
2 | CC(=O)OC[C@H]1OC(OC(C)=O)[C@H](NC(=O)/C=C(C)/C=C/C=C(C)/C=C/C2=C(C)CCCC2(C)C)[C@@H](OC(C)=O)[C@@H]1OC(C)=O (single isomer, unassigned) [1,3,4,6-tetra-O-acetyl-N-retinoyl-D-glucosamine] | 0.0 | 1000 to 10000 (≈ 1.59 to 15.9 mM) | – | – | – | – | – | – | – | – | – | – | –
3 | CC(=O)OC[C@H]1OC(OC(C)=O)[C@H](NC(=O)/C=C(C)/C=C/C=C(C)/C=C/C2=C(C)CCCC2(C)C)[C@@H](OC(C)=O)[C@@H]1OC(C)=O (stereo partly drawn) [1,3,4,6-tetra-O-acetyl-N-retinoyl-D-glucosamine] | – | – | 0.0 | – | – | – | – | – | – | – | – | – | –
4 | CCCCCCCCCCCCOC(=O)N[C@H]1C(O)O[C@H](CO)[C@@H](O)[C@@H]1O (stereo partly drawn) [N-dodecyloxycarbonyl-D-glucosamine] | – | – | – | 183 | +++ | – | – | – | – | – | – | – | –
5 | CC(C)CCCCCCCCCCCCCCC(=O)N[C@H]1C(O)O[C@H](CO)[C@@H](O)[C@@H]1O (stereo partly drawn) [N-isostearoyl-D-glucosamine] | – | – | 0.1 | 136 | + | 80 | 72 | 0 | 2 | 0 | 3 | 60 | –
6 | CCCCCCCCCCCC(=O)N[C@H]1C(O)O[C@H](CO)[C@@H](O)[C@@H]1O (stereo partly drawn) [N-lauroyl-D-glucosamine] | – | – | 0.1 | 114 | + | 78 | 87 | 1 | 1 | 0 | 1 | 33 | –
7 | CCCCC/C=C\C/C=C\CCCCCCCC(=O)N[C@H]1C(O)O[C@H](CO)[C@@H](O)[C@@H]1O (stereo partly drawn) [N-linoleoyl-D-glucosamine] | – | – | 0.3 | 115 | ++ | 62 | 58 | 1 | 3 | 0 | 1 | 20 | –
8 | CCCCCCCC/C=C\CCCCCCCC(=O)N[C@H]1C(O)O[C@H](CO)[C@@H](O)[C@@H]1O (stereo partly drawn) [N-oleoyl-D-glucosamine] | – | – | 0.2 | 114 | +++ | 65 | 59 | 0 | 2 | 0 | 3 | 60 | –
9 | CC1=C(/C=C/C(C)=C/C=C/C(C)=C/C(=O)N[C@H]2C(O)O[C@H](CO)[C@@H](O)[C@@H]2O)C(C)(C)CCC1 [N-retinoyl-D-glucosamine (cis isomer/trans isomer = 0/100), N-retinoyl-D-glucosamine] | 0.0 | 1000 to 10000 (≈ 2.17 to 21.7 mM) | – | – | – | – | – | – | – | – | – | – | –
10 | CC1=C(/C=C/C(C)=C/C=C/C(C)=C/C(=O)O)C(C)(C)CCC1 [Retinoic acid, reference compound] | – | – | 8.0 | – | – | – | – | – | – | – | – | – | –
11 | N-POE(2)hexadecyletheroxycarbonyl-D-glucosamine | – | – | – | 139 | ++ | 72 | 89 | 0 | 2 | 0 | 3 | 60 | 0.1
12 | N-POE(5)octadecyletheroxycarbonyl-D-glucosamine | – | – | – | 128 | ++ | 73 | 92 | 0 | 3 | 0 | 2 | 40 | 0.2
13 | N-POE(10)docosyletheroxycarbonyl-D-glucosamine | – | – | – | 138 | ++ | 82 | 88 | 0 | 3 | 0 | 2 | 40 | 0.1
14 | N-retinoyl-D-glucosamine | – | – | – | 127 | +++ | 89 | 75 | 0 | 0 | 4 | 2 | 100 | –
15 | N-retinoyl-D-glucosamine [N-retinoyl-D-glucosamine (9-cis isomer/13-cis isomer/trans i] | 0.1 | – | 0.1 | – | – | – | – | – | – | – | – | – | –
16 | N-retinoyl-D-glucosamine [N-retinoyl-D-glucosamine (9-cis isomer/trans isomer = 0.5/99.5)] | 0.1 | – | – | – | – | – | – | – | – | – | – | – | –
17 | N-retinoyl-D-glucosamine [N-retinoyl-D-glucosamine (13-cis isomer/trans isomer = 0.5/99.5)] | 0.0 | – | – | – | – | – | – | – | – | – | – | – | –
